From ChEMBL document CHEMBL2163249, “Exploration of natural compounds as sources of new bifunctional scaffolds targeting cholinesterases and beta amyloid aggregation: the case of chelerythrine” (Bioorg Med Chem, 2012)

Tests used:
[1] = molecular target: Acetylcholinesterase (Electrophorus electricus) (UniProt O42275); details: at 2 mg/mL
Description: Inhibition of electric eel AChE at 2 mg/ml by Ellman's method

[2] = molecular target: Cholinesterase (Equus caballus) (UniProt P81908); details: at 2 mg/mL
Chain of Cholinesterase (Equus caballus) (P81908 whole entry): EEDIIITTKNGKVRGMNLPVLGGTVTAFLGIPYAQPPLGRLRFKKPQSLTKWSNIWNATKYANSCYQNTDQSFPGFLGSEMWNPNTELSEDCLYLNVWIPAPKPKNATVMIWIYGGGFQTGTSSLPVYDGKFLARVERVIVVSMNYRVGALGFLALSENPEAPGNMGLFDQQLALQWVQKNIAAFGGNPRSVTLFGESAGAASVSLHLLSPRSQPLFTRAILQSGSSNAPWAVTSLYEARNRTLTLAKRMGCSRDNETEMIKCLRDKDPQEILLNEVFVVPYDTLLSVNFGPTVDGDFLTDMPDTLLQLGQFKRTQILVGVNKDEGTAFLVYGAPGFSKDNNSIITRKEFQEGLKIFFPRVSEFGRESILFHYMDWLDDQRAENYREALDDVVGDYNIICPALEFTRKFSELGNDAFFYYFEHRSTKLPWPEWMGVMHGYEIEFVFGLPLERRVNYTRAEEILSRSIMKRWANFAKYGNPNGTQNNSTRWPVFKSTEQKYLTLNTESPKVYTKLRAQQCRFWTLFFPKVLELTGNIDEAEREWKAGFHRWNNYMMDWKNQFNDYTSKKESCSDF
Description: Inhibition of horse BChE at 2 mg/ml by Ellman's method

Chain of Acetylcholinesterase (Electrophorus electricus) (O42275 24-633 limits assumed): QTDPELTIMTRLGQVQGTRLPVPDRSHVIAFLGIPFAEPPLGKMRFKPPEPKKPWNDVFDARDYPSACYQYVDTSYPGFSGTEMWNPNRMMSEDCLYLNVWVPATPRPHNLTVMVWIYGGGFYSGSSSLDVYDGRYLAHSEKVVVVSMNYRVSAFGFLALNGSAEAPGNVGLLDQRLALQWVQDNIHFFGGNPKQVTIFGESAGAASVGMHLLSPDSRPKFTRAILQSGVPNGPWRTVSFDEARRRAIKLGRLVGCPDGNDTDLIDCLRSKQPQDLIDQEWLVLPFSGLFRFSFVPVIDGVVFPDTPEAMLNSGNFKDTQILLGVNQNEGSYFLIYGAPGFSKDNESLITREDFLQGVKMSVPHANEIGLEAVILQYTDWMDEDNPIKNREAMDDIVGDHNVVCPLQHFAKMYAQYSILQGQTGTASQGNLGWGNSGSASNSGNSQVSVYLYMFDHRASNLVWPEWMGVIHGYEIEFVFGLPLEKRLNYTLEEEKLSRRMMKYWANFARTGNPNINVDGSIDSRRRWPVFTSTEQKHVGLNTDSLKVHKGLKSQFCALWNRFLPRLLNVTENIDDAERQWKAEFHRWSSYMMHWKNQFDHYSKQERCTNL

Structure (SMILES) | inhibition [1] [%] | inhibition [2] [%]
C[C@@H]1NCCc2cc(O)c(O)cc21 | 19.3 | -1.84
CN1c2ccccc2C(=O)N2CCc3c([nH]c4ccccc34)[C@@H]21 | 12.4 | 26
COc1ccc(-c2coc3cc(O)ccc3c2=O)cc1 | 1.62 | 0.57
CCCCC[C@H](O)/C=C/[C@H]1[C@H](O)CC(=O)[C@@H]1CCCCCCC(=O)O | 16.6 | -1.69
CC1(C)CC[C@]2(C(=O)O)CC[C@]3(C)C(=CC[C@@H]4[C@@]5(C)CC[C@H](O)C(C)(C)[C@@H]5CC[C@]43C)[C@@H]2C1 | 10.2 | 0.92
COc1ccc(-c2cc(=O)c3c(O)cc(O)cc3o2)cc1 | -1.38 | -2.17
CCCCC[C@H](O)/C=C/[C@H]1[C@H](O)CC(=O)[C@@H]1C/C=C\CCCC(=O)O | 14.8 | -2.38
COC[C@H]1OC(=O)c2coc3c2[C@@]1(C)C1=C(C3=O)[C@@H]2CCC(=O)[C@@]2(C)C[C@H]1OC(C)=O | 16.2 | -6.29
CC(=O)c1c(O)c(C)c(O)c(Cc2c(O)c3c(c(C(=O)/C=C/c4ccccc4)c2O)OC(C)(C)C=C3)c1O | 15.8 | 4.24
COC(=O)[C@H]1[C@H]2C[C@H]3c4[nH]c5ccccc5c4CCN3C[C@@H]2CC[C@@H]1O | 15.8 | 6.02
C[C@H]1[C@H](C)CC[C@]2(C(=O)O)CC[C@]3(C)C(=CC[C@@H]4[C@@]5(C)C[C@@H](O)[C@H](O)[C@@](C)(CO)[C@@H]5CC[C@]43C)[C@H]12 | 3.99 | -8.64
CCCC(=O)O[C@@H]1[C@@H](C)[C@@]2(O)[C@@H](C=C(CO)C[C@]3(O)C(=O)C(C)=C[C@@H]23)[C@@H]2C(C)(C)[C@]12OC(=O)CCC (stereo in doubt; form 2) | 19.5 | 5.87
CC(C)=CCC[C@]1(C)C=Cc2c(O)c3c(c(CC=C(C)C)c2O1)O[C@]12C(=C[C@@H]4C[C@H]1C(C)(C)O[C@@]2(C/C=C(/C)C(=O)O)C4=O)C3=O | 1.17 | 8.47
OC[C@H]1O[C@@H](O[C@@H]2OC=C[C@H]3[C@H](O)[C@@H]4O[C@]4(CO)[C@@H]23)[C@H](O)[C@@H](O)[C@@H]1O | 11.3 | -5.36
COc1ccc2cc1Oc1ccc(cc1)C[C@H]1c3c(cc4c(c3Oc3cc5c(cc3OC)CCN(C)[C@@H]5C2)OCO4)CCN1C | 8.59 | 40.6
O=C(/C=C/c1ccc(O)c(O)c1)O[C@H](Cc1ccc(O)c(O)c1)C(=O)O | 14.9 | -3.64
C=CCc1ccc(O)c(-c2cc(CC=C)ccc2O)c1 | -2.45 | 0.25
C[C@@H]1C(=O)O[C@H]2[C@H](O)[C@@]34[C@H]5C[C@@H](C(C)(C)C)[C@]36[C@@H](OC(=O)[C@@H]6O)O[C@@]4(C(=O)O5)[C@@]12O | -7.35 | 9.99
CN(C)c1ccc(O)c2c1C[C@H]1C[C@H]3[C@H](N(C)C)C(O)=C(C(N)=O)C(=O)[C@@]3(O)C(O)=C1C2=O | -0.24 | -8.62
Cc1c2c(c(O)c3c(O)cccc13)C(=O)O[C@H]2[C@@H]1[C@H](O)C(=O)C(C(N)=O)=C(O)[C@H]1N(C)C | 16.9 | 7.3
O=C(/C=C/c1ccc(O)cc1)CC(=O)/C=C/c1ccc(O)cc1 | 2 | 7.13
CO[C@@H]1[C@H](O)C[C@@H](O[C@@H]2C[C@H](Oc3cc4cc5c(c(O)c4c(O)c3C)C(=O)[C@@H](O[C@H]3C[C@@H](O[C@H]4C[C@@H](O[C@H]6C[C@](C)(O)[C@@H](OC(C)=O)[C@H](C)O6)[C@H](O)[C@@H](C)O4)[C@H](O)[C@@H](C)O3)[C@H]([C@H](OC)C(=O)[C@@H](O)[C@@H](C)O)C5)O[C@H](C)[C@@H]2OC(C)=O)O[C@@H]1C | 5.47 | 3.95
CC[C@H]1CN2CCc3cc(OC)c(OC)cc3[C@@H]2C[C@@H]1C[C@H]1NCCc2cc(O)c(OC)cc21 | 11.9 | -6.9
C[C@H]1CC[C@@H]2N(C1)C[C@H]1[C@@H]3C[C@H]4[C@@H](CC(=O)[C@H]5C[C@@H](O)CC[C@@]54C)[C@@H]3CC[C@H]1[C@]2(C)O | 24.9 | 6.5

Structure (SMILES) | inhibition [1] [%] | inhibition [2] [%]
C[C@@]12CCc3occc3[C@H]1CC[C@@]13C[C@@H](CC[C@H]12)[C@@](O)(CO)C3 | -1.43 | 13.8
O=c1cc(-c2ccc(O)c(O)c2)oc2cc(O)cc(O)c12 | 13.6 | 0.42
CC(=O)OC[C@]12CCC(C)=C[C@H]1O[C@@H]1[C@H](O)[C@@H](OC(C)=O)[C@@]2(C)[C@]12CO2 | 23.8 | 12.3
CN1CCC[C@H]1c1cccnc1 | 15.6 | 1.2
COc1cc(C(=O)O[C@H]2C[C@@H]3CC[C@]2(C)C3(C)C)ccc1O | 25.2 | 1.44
COc1cc([C@@H]2CC(=O)c3c(O)cc(O)cc3O2)ccc1O | 29.5 | 3.1
CCCC[N+]1(C)[C@@H]2C[C@@H](OC(=O)[C@H](CO)c3ccccc3)C[C@H]1[C@@H]1O[C@@H]12 (stereo partly specified) | 22.5 | -4.42
CSC(=S)NCc1c[nH]c2ccccc12 | -0.26 | -5.64
CN(C)CCc1ccc(O)cc1 | -4.35 | -2.06
COc1cc(-c2oc3cc(O)cc(O)c3c(=O)c2OC2O[C@H](CO[C@@H]3O[C@@H](C)[C@H](O)[C@@H](O)[C@H]3O)[C@@H](O)[C@H](O)[C@H]2O)ccc1O (stereo partly specified) | 24.8 | 0.75
C[C@@H]1C[C@H]2O[C@@H]2/C=C\C=C\C(=O)Cc2c(Cl)c(O)cc(O)c2C(=O)O1 | 17.4 | -1.22
C[C@H]1CCC/C=C/[C@@H]2C[C@H](O)C[C@H]2[C@H](O)/C=C/C(=O)O1 | -3.21 | 5.24
O=C(O)/C=C/c1ccc(O)c(O)c1 | 2.2 | 0.67
COc1cc(/C=C/C(=O)O)ccc1O | -1.29 | -0.02
O=C(/C=C/c1ccc(O)c(O)c1)OCCc1ccccc1 | -8.88 | 17.7
COc1cc2c(c3oc4cccc(O)c4c(=O)c13)[C@@H]1C=CO[C@@H]1O2 | 18.2 | -2.65
CCOC(=O)C1=C[C@]2(CC)CCCN3CCc4c(n1c1ccccc41)[C@@H]32 | 12.3 | 29.1
CC(=O)O[C@H]1[C@H]2[C@@H](OC(=O)Cc3ccccc3)[C@@H](C)C[C@]2(OC(C)=O)C(=O)/C(C)=C/[C@@H]2[C@H](CC[C@@]13CO3)C2(C)C | -2.46 | -5.46
O=C1C=C2C=C[C@@H]3C[C@@]2(O1)[C@H]1CCCCN31 | 7.44 | 6.85
CC1=CC(=O)C2=C(C)CC[C@@H]3[C@H](OC(=O)[C@H]3C)[C@@H]12 | -3.63 | 0.28
CN1CCc2cc(O)c(O)cc2C1Cc1cc(O)c(O)cc1Br (racemic) | 27.2 | 13.4
O=C1c2ccccc2-n2c1nc1ccccc1c2=O | 35.3 | -2.13
CCC[C@@H]1C[C@@H](C(=O)N[C@@H]([C@H]2O[C@H](SC)[C@H](O)[C@@H](O)[C@H]2O)[C@@H](C)O)N(C)C1 | -3.63 | -2.36
CCCCC1OC(=O)C2=CCCCC21 (stereo unspecified) | -0.57 | 4.12
